{"source": "PubChem BioAssay (NCI)", "note": "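Cultured in 96-well plates, cells were exposed to test compound for 48 hours across five concentrations. TGI denotes the concentration required for complete inhibition of growth.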", "data": [{"test_system": "SR leukemia", "assay": "NCI tumour cell line growth inhibition, 48 h", "units": {"TGI": "µM"}, "values": [{"smiles": "C=CCN1C(=O)/C(=C/c2ccc(Cl)cc2)N=C1SC/C=C/C", "TGI": 46.7}, {"smiles": "CC12Nc3c(Cl)cc(Cl)cc3N1C(=O)c1ccccc12", "note": "(stereo unspecified)", "TGI": "> 100"}, {"smiles": "Nc1cc(Cl)cc2cc(Cl)cnc12", "TGI": "> 100"}, {"smiles": "COC(=O)/C(C)=N/NC(=S)SC", "TGI": "> 100"}, {"smiles": "O=C(/C=C/c1cccc([N+](=O)[O-])c1)N1CCN(CCOC(c2ccccc2)c2ccccc2)CC1", "TGI": 32.9}, {"smiles": "CC(=O)OCC1OC(NC(=S)Nn2c(=O)[nH]c3ccccc3c2=O)C(OC(C)=O)C(OC(C)=O)C1OC(C)=O", "note": "(stereo unspecified)", "TGI": "> 100"}, {"smiles": "Cc1ccc2c(c1)C(=O)C1(C2)Cc2c(C)cccc2C1=O", "note": "(stereo unspecified)", "TGI": "> 100"}, {"smiles": "CC1=NN(c2cccc(S(=O)(=O)O)c2)C2(C1)C(Cl)C(=O)N2c1nc2ccccc2s1", "note": "(stereo unspecified)", "TGI": 17.4}, {"smiles": "C/C(Cl)=N/OC(=O)Nc1ccc(F)c([N+](=O)[O-])c1", "TGI": 30.7}, {"smiles": "COC(=O)C1C2OC(C)(C)OC2CN1S(=O)(=O)c1ccc(C)cc1", "note": "(stereo unspecified)", "TGI": "> 100"}, {"smiles": "COc1ccc(CNc2ccn(C3OC(CO)C(O)C3O)c(=O)n2)cc1", "note": "(stereo unspecified)", "TGI": "> 100"}, {"smiles": "O=C1CSC(c2ccccc2)N1c1nc2cc3sc(N4C(=O)CSC4c4ccccc4)nc3cc2s1", "note": "(stereo unspecified)", "TGI": "> 100"}, {"smiles": "C[C@]12CCC(O)CC1=CC[C@@H]1[C@@H]2CC[C@]2(C)C(O)[C@H](n3ccnc3)C[C@@H]12", "note": "(stereo partly specified)", "TGI": "> 100"}, {"smiles": "O=C(CC(O)(C(F)(F)F)C(F)(F)F)C(c1ccccc1)C(O)(C(F)(F)F)C(F)(F)F", "note": "(stereo unspecified)", "TGI": "> 100"}, {"smiles": "CCOC(=O)/C(C#N)=C/Nc1c(C)n(C)n(-c2ccccc2)c1=O", "TGI": "> 100"}]}, {"test_system": "SW-620 colon", "assay": "NCI tumour cell line growth inhibition, 48 h", "units": {"TGI": "µM"}, "values": [{"smiles": "COc1cc(C(=O)NNC(=O)c2cc(Br)ccc2NC(=O)c2cccs2)cc(OC)c1OC", "TGI": "> 100"}, {"smiles": "C[N+]12CCCCC1C(COc1cccc3cccnc13)CCC2", "note": "(stereo unspecified)", "TGI": "> 100"}, {"smiles": "Cc1ccc(S(=O)(=O)NC(=O)NCc2ccc(S(N)(=O)=O)cc2)cc1", "TGI": "> 100"}, {"smiles": "NC(=O)NC1NC(=O)NC1=O", "note": "(stereo unspecified)", "TGI": "> 100"}, {"smiles": "CCN(CCCl)c1cc(CN(C)C)cc(NC(=O)c2ccc(C(=O)Nc3cc(CN(C)C)cc(N(CC)CCCl)c3)cc2)c1", "TGI": 1.92}, {"smiles": "C=CCN1C(=O)/C(=C/c2ccc(Cl)cc2)N=C1SC/C=C/C", "TGI": "> 100"}, {"smiles": "CC12Nc3c(Cl)cc(Cl)cc3N1C(=O)c1ccccc12", "note": "(stereo unspecified)", "TGI": "> 100"}, {"smiles": "Nc1cc(Cl)cc2cc(Cl)cnc12", "TGI": "> 100"}, {"smiles": "COC(=O)/C(C)=N/NC(=S)SC", "TGI": "> 100"}, {"smiles": "O=C(/C=C/c1cccc([N+](=O)[O-])c1)N1CCN(CCOC(c2ccccc2)c2ccccc2)CC1", "TGI": "> 100"}, {"smiles": "CC(=O)OCC1OC(NC(=S)Nn2c(=O)[nH]c3ccccc3c2=O)C(OC(C)=O)C(OC(C)=O)C1OC(C)=O", "note": "(stereo unspecified)", "TGI": "> 100"}, {"smiles": "Cc1ccc2c(c1)C(=O)C1(C2)Cc2c(C)cccc2C1=O", "note": "(stereo unspecified)", "TGI": "> 100"}, {"smiles": "CC1=NN(c2cccc(S(=O)(=O)O)c2)C2(C1)C(Cl)C(=O)N2c1nc2ccccc2s1", "note": "(stereo unspecified)", "TGI": 21.1}, {"smiles": "C/C(Cl)=N/OC(=O)Nc1ccc(F)c([N+](=O)[O-])c1", "TGI": 25.6}, {"smiles": "COC(=O)C1C2OC(C)(C)OC2CN1S(=O)(=O)c1ccc(C)cc1", "note": "(stereo unspecified)", "TGI": "> 100"}, {"smiles": "COc1ccc(CNc2ccn(C3OC(CO)C(O)C3O)c(=O)n2)cc1", "note": "(stereo unspecified)", "TGI": "> 100"}, {"smiles": "O=C1CSC(c2ccccc2)N1c1nc2cc3sc(N4C(=O)CSC4c4ccccc4)nc3cc2s1", "note": "(stereo unspecified)", "TGI": "> 100"}, {"smiles": "C[C@]12CCC(O)CC1=CC[C@@H]1[C@@H]2CC[C@]2(C)C(O)[C@H](n3ccnc3)C[C@@H]12", "note": "(stereo partly specified)", "TGI": "> 100"}, {"smiles": "O=C(CC(O)(C(F)(F)F)C(F)(F)F)C(c1ccccc1)C(O)(C(F)(F)F)C(F)(F)F", "note": "(stereo unspecified)", "TGI": "> 100"}, {"smiles": "CCOC(=O)/C(C#N)=C/Nc1c(C)n(C)n(-c2ccccc2)c1=O", "TGI": "> 100"}]}, {"test_system": "U251 CNS", "assay": "NCI tumour cell line growth inhibition, 48 h", "units": {"TGI": "µM"}, "values": [{"smiles": "COc1cc(C(=O)NNC(=O)c2cc(Br)ccc2NC(=O)c2cccs2)cc(OC)c1OC", "TGI": 44.6}, {"smiles": "C[N+]12CCCCC1C(COc1cccc3cccnc13)CCC2", "note": "(stereo unspecified)", "TGI": "> 100"}, {"smiles": "Cc1ccc(S(=O)(=O)NC(=O)NCc2ccc(S(N)(=O)=O)cc2)cc1", "TGI": "> 100"}, {"smiles": "NC(=O)NC1NC(=O)NC1=O", "note": "(stereo unspecified)", "TGI": "> 100"}, {"smiles": "CCN(CCCl)c1cc(CN(C)C)cc(NC(=O)c2ccc(C(=O)Nc3cc(CN(C)C)cc(N(CC)CCCl)c3)cc2)c1", "TGI": 1.64}, {"smiles": "C=CCN1C(=O)/C(=C/c2ccc(Cl)cc2)N=C1SC/C=C/C", "TGI": 84.8}, {"smiles": "CC12Nc3c(Cl)cc(Cl)cc3N1C(=O)c1ccccc12", "note": "(stereo unspecified)", "TGI": "> 100"}, {"smiles": "Nc1cc(Cl)cc2cc(Cl)cnc12", "TGI": "> 100"}, {"smiles": "COC(=O)/C(C)=N/NC(=S)SC", "TGI": "> 100"}, {"smiles": "CC(=O)OCC1OC(NC(=S)Nn2c(=O)[nH]c3ccccc3c2=O)C(OC(C)=O)C(OC(C)=O)C1OC(C)=O", "note": "(stereo unspecified)", "TGI": "> 100"}, {"smiles": "Cc1ccc2c(c1)C(=O)C1(C2)Cc2c(C)cccc2C1=O", "note": "(stereo unspecified)", "TGI": "> 100"}]}]}
